The record followed here is patent US20040209239A1, “Methods and compositions fir identifying episomal dna virus infection treatment” (priority 2001, published 2004).

Assay [1] has as its system OriP. Put plainly: OriP plasmid maintenance in cells. The format is cell-based, Epstein-Barr virus. To be noted: for OriP maintenance, dependence on nonamer binding sites: D98/HR1 cells transfected with OriP wt or OriPΔa,b,c, 3 weeks after sorting, Southern analysis of Hirt lysates; for plasmid maintenance of OriP: FIG. 4 and FIG. 5C. An excerpt: A green fluorescent protein (GFP) reporter gene is inserted into the polylinker site of plasmid pREP10 (Invitrogen), which contains the EBV oriP and EBNA-1 under the control of its weak, naturally-occurring viral promoter. The GFP reporter gene allows for rapid flow cytometric (FACS) analysis to determine the percent of cells carrying the DNA vector. FACS is also used to cell sort, i.e., to obtain a homogeneous population of cells all expressing GFP and therefore carrying the vector.
The recombinant episomal plasmid GFP-REP10 is transfected into recipient mammalian or avian host cells and cells are sorted after 48 hours to obtain a homogeneous population (100%) expressing the GFP label. Test compounds, individually or in combination, or controls are applied to samples of the culture medium to test for the effect on GFP positive cells. Cells treated with test compounds, or with positive and/or negative controls, are assayed for the rate of loss of GFP over several days to weeks. These rates of loss are compared for each test compound with the relevant controls to determine novel test compounds that enhance or decrease episomal maintenance in the cell.
Confirmation of episomal DNA is determined at the experimental endpoint of between 3 to 5 weeks, using the HIRT extraction and Southern blotting procedure, described in e.g., Yates et al, 2000, J. Virol. 74, 4512-4522.
In one study, D98/HR1 cells were transfected with OriP wt or OriPΔa,b,c, GFP-selected by FACS, and cultured in the presence of niacinamide (PARP inhibitor), hydroxyurea (PARP stimulator), or 3-AB (PARP inhibitor). OriP maintenance was assayed 3 weeks after sorting by Southern analysis of Hirt lysates.

For assay [2], the system named is EBV genome. The experiment in a line: Stability of the EBV genome in cells. The class given is cell-based, Epstein-Barr virus. To be noted: FIG. 5A and FIG. 5B.
Assay [3] relates to episomal plasmids. Put plainly: Transient replication of episomal plasmids. The format is cell-based.
The subject of assay [4] is TRF1. Put plainly: ChIP assay of TRF1 association with OriP in D98/HR1 cells. To be noted: treated D98/HR1 cells. The class given is cell-based. As to the method:
(§1) To determine if telomere associated proteins EBNA1, TRF2 and Tankyrase associate with EBV oriP episomes in naturally infected cell lines, the chromatin immunoprecipitation) (CHIP) assay was used with EBV positive RAJI Burkitt lymphoma cell lines that contain ˜5-25 copies of episomal EBV. Chromatin immunoprecipitation was performed as described in Galande, S. & Kohwi-Shigematsu, 1999 J. Biol. Chem. 274, 20521-20528.
(§2) Briefly, asynchronous RAJI cells were cross-linked with formaldehyde, sonicated to generate chromatin DNA fragments of 400 bp average size, and then immunoprecipitation with various antibodies to FLAG-M2 (Sigma), EBNA1, Tankyrase, or TRF2. DNA fragments isolated from immunoprecipitation protein-DNA complexes (three-fold dilutions for each set of antibodies) were then amplified for 24 cycles by PCR with primer pairs specific for the DS region of EBV oriP (corresponding to EBV nucleotides 8586-9206, nucleotides 1-621 SEQ ID NO: 1), or for control EBV sequences surrounding the BRLF1 promoters (nucleotides 106,094-106,420, nucleotides 1-317 SEQ ID NO: 2), over 90 kb away from oriP and unlikely to share OriP binding proteins.
(§3) EBNA1, hRap1,and TRF1 association with OriP were determined by ChIP assay in cells that were treated with hydroxyurea or niacinamide. […]

Assay [5] relates to histone H3. The experiment in a line: OriP-associated histone modification by ChIP assay in Akata cells. The class given is cell-based. As for the experimental part: Akata cells were cultured without treatment, with H2O2, hydroxyurea (HU) or niacinamide as indicated above each lane. OriP-associated histone modification was measured by ChIP assay with antibodies specific for Flag, Acetylated H3, acetylated H4, or S10 phosphorylated H3.

For assay [6], the system named is EBNA1. The experiment in a line: ChIP assay of EBNA1 association with OriP in D98/HR1 cells. The class given is cell-based, Epstein-Barr virus. To be noted: treated D98/HR1 cells. As to the method: as §1, §2, §3
For assay [7], the system named is hRap1. The experiment in a line: ChIP assay of hRap1 association with OriP in D98/HR1 cells. The class given is cell-based, human. The note with it: treated D98/HR1 cells.
In assay [8] the test system is EBNA1. The experiment in a line: EBNA1 binding to DS in Akata cells. The format is cell-based, Epstein-Barr virus. The note with it: preliminary results. As to the method: (§4) EBNA1 and MCM3 binding to DS were assayed in Akata cells cultured with no treatment, with hydroxyurea, or with niacinamide. […] Future quantification of these preliminary results will be necessary to determine the significance of MCM3 and other MCM complex components interaction with OriP.

Assay [9] relates to MCM3. Put plainly: MCM3 binding to DS in Akata cells. The class given is cell-based. To be noted: preliminary results. As for the experimental part: as §4
Assay [10] relates to EBNA1. The experiment in a line: DS DNA affinity chromatography in the presence or absence of NAD. The format is binding, Epstein-Barr virus. The note with it: 1 mM NAD. As for the experimental part:
To identify cellular proteins that mediate EBNA1 functions at OriP, a stable HeLa cell derivative (SL1) was established expressing epitope tagged EBNA1 (HA-EBNA1) and episomal OriP. SL1 cells were generated by retroviral transformation of HeLa S3 cells with HA-EBNA1 lacking Gly-Ala repeats (Δ102-325). HeLa and SL1 cell nuclear extracts were prepared by the method of Dignam, J. D. et al, 1983 Nucl. Acids Res. 11, 1475-1489. Nuclear pellets were solubilized by sonication in RIPA buffer (1% Triton×100, 0.1% sodium deoxycholate, 140 mM NaCl, 50 mM Hepes (pH 7.5), 1 mM EDTA, 1 mM DTT, and protease inhibitors-1 mM PMSF, 1 mM benzamidine, 10 μg/ml aprotinin, 20 μg/ml leupeptine, 1 μg/ml pepstatin, 25 μg/ml TLCK and 50 μg/ml TPCK). Sonicated nuclear pellets were clarified by centrifugation at 39,000×g for 30 minutes. This solubilized nuclear pellets were combined with nuclear extract (1:1) made 6 mM MgCl2, and preincubated with 400 μg/ml sonicated herring sperm DNA for 30 minutes. Biotinylated PCR fragments were coupled to streptavidin conjugated magnetic bead (Dynal) and then incubated nuclear extracts for 45 minutes at 25° C. The bound material was washed 4 times in D150 buffer (20 mM HEPES, pH7.9, 20% glycerol, 0.2 mM EDTA, 150 mM KCl, 1 mM DTT, 1 mM PMSF) and then eluted with D1000 (same as above except 1000 mM KCl). […]

Regarding `NC(=O)c1cccc(N)c1` [3-AB, 3-aminobenzamide], in [1], the “long term maintenance of episomal plasmids” value is recorded as “stabilize long term maintenance” and the “OriP maintenance, dependence on nonamer binding sites” value is given as “enhanced plasmid maintenance was dependent upon the nonamer binding sites in OriP”. Moreover, the “stability of the EBV genome in cells” value in assay [2] is recorded as “enhanced the stability of the EBV genome”. Besides, the “transient replication of episomal plasmids” value in assay [3] is “weakly inhibit transient replication”.

Take `OO` [H2O2, hydrogen peroxide]: in assay [4], the “TRF1 association with OriP” value is on record as “TRF1 binding was reduced”. In [5], the “OriP-associated S10 phosphorylation of histone H3” value is “inhibited H3 acetylation and S10 phosphorylation”; the “OriP-associated histone H3 acetylation” value is recorded as “inhibited H3 acetylation”.

For the molecule `NC(=O)NO` [hydroxyurea], the “plasmid maintenance of OriP” value in [1] is on record as “decreased the maintenance of the OriP plasmid”. For the same molecule, in [2], the “stability of the EBV genome in cells” value was “decreased the stability of the EBV genome”. The “TRF1 association with OriP” value in assay [4] is reported as “reduced TRF1 association”. Besides, the “EBNA1 association with OriP” value in [6] was “not EBNA1”. The “hRap1 association with OriP” value in assay [7] is reported as “not EBNA1 or hRap1”. Also, in assay [8], the “EBNA1 binding to DS” value was “decrease in EBNA1 and MCM3 association”. Moreover, in assay [9], the “MCM3 binding to DS” value was “decrease in EBNA1 and MCM3 association”. Further, the “OriP-associated S10 phosphorylation of histone H3” value in assay [5] is “inhibited S10 phosphorylation of histone H3”.

On to `NC(=O)c1cccnc1` [niacinamide], for which, in assay [1], the “long term maintenance of episomal plasmids” value is on record as “stabilize long term maintenance”; the “OriP maintenance, dependence on nonamer binding sites” value is “enhanced plasmid maintenance was dependent upon the nonamer binding sites in OriP”; the “plasmid maintenance of OriP” value is given as “increased OriP maintenance”. In assay [2], the “stability of the EBV genome in cells” value is given as “enhanced stability of the EBV genome”. The “transient replication of episomal plasmids” value in assay [3] is listed as “weakly inhibit transient replication”. Further, in assay [9], the “MCM3 binding to DS” value is “increased the MCM3 binding relative to EBNA1”.

With `NC(=O)c1ccc[n+]([C@@H]2O[C@H](COP(=O)([O-])OP(=O)(O)OC[C@H]3O[C@@H](n4cnc5c(N)ncnc54)[C@H](O)[C@@H]3O)[C@@H](O)[C@H]2O)c1` [NAD], the “association of EBNA1 with DS” value in assay [10] is recorded as “strong inhibit the association of EBNA1”.
